From US9714247B2, “Multiple kinase pathway inhibitors” (Mannkind Corporation, priority 2012, dated 2017)
Read-outs that look alike come from different tables or passages of the source.

Tests used:
Src [1] = molecular target: T1, Src (Homo sapiens (Human), UniProt P12931); assay: biochemical
PDGFRβ(h) = PDGFRβ(h) (Homo sapiens (Human), UniProt P09619); assay: IC50 profiler radiometric kinase assay (Millipore); type: biochemical; details: TK
Protocol: (§1) In order to determine the relative enzyme selectivity of these amino naphthyridinones, representative amino naphthyridinones were evaluated for their ability to inhibit various kinases. Kinases were selected for a broad representation of the kinome (see FIG. 2: Kinases Evaluated). Compounds were evaluated using the IC50 profiler assay (Millipore), which measures substrate phosphorylation via γ-^33P-ATP transfer by the kinase of interest.
(§2) The assay directly measures the catalytic incorporation of phosphate onto kinase substrates. The kinase protein is incubated in buffer with substrate and γ-^33P-ATP. The reaction is initiated by the addition of the Mg-ATP mix. At the end of the reaction incubation time, the reaction is stopped by the addition of phosphoric acid solution and 10 μL of the reaction is spotted onto a filtermat, washed, dried and counted in scintillation fluid. […] In particular the amino naphthyridinones inhibited Abl and some but not all tested members of the Tec and Src families of tyrosine kinases, but not tyrosine-like kinases or the non-tyrosine kinases tested (See FIG. 2: Compound 1). […] Other known drugs with activity against BTK and SFKs, such as dasatinib and bosutinib, have activity against a broader array of tyrosine kinases as well as inhibiting non-tyrosine kinases (See FIG. 2: Dasatinib).

FGFR1(h) = FGFR1(h) (Homo sapiens (Human), UniProt P11362); assay: IC50 profiler radiometric kinase assay (Millipore); type: biochemical; details: TK
Protocol: as §1, §2

c-RAF(h) = c-RAF(h) (Homo sapiens (Human), UniProt P04049, Y340D/Y341D); assay: IC50 profiler radiometric kinase assay (Millipore); type: biochemical; details: TKL
Protocol: as §1, §2

Hck(h) activated = Hck(h) activated (Homo sapiens (Human), UniProt P08631); assay: IC50 profiler radiometric kinase assay (Millipore); type: biochemical; details: TK; activated = phosphorylated
Protocol: as §1, §2

Bmx(h) = Bmx(h) (Homo sapiens (Human), UniProt P51813); assay: IC50 profiler radiometric kinase assay (Millipore); type: biochemical; details: TK
Protocol: as §1, §2

Abl(h) = Abl(h) (Homo sapiens (Human), UniProt P00519); assay: IC50 profiler radiometric kinase assay (Millipore); type: biochemical; details: TK
Protocol: as §1, §2

JAK3(h) = JAK3(h) (Homo sapiens (Human), UniProt P52333); assay: IC50 profiler radiometric kinase assay (Millipore); type: biochemical; details: TK
Protocol: as §1, §2

PAK2(h) = PAK2(h) (Homo sapiens (Human), UniProt Q13177); assay: IC50 profiler radiometric kinase assay (Millipore); type: biochemical; details: STE
Protocol: as §1, §2

CSK(h) = CSK(h) (Homo sapiens (Human), UniProt P41240); assay: IC50 profiler radiometric kinase assay (Millipore); type: biochemical; details: TK
Protocol: as §1, §2

GSK3β(h) = GSK3β(h) (Homo sapiens (Human), UniProt P49841); assay: IC50 profiler radiometric kinase assay (Millipore); type: biochemical; details: CMGC
Protocol: as §1, §2

MKK6(h) = MKK6(h) (Homo sapiens (Human), UniProt P52564); assay: IC50 profiler radiometric kinase assay (Millipore); type: biochemical; details: STE
Protocol: as §1, §2

PDK1(h) = PDK1(h) (Homo sapiens (Human), UniProt O15530); assay: IC50 profiler radiometric kinase assay (Millipore); type: biochemical; details: AGC
Protocol: as §1, §2

TGFBR1(h) = TGFBR1(h) (Homo sapiens (Human), UniProt P36897); assay: IC50 profiler radiometric kinase assay (Millipore); type: biochemical; details: TKL
Protocol: as §1, §2

Met(h) = Met(h) (Homo sapiens (Human), UniProt P08581); assay: IC50 profiler radiometric kinase assay (Millipore); type: biochemical; details: TK
Protocol: as §1, §2

c-Kit(D816V)(h) = c-Kit(D816V)(h) (Homo sapiens (Human), UniProt P10721, D816V); assay: IC50 profiler radiometric kinase assay (Millipore); type: biochemical; details: TK
Protocol: as §1, §2

JAK2(h) = JAK2(h) (Homo sapiens (Human), UniProt O60674); assay: IC50 profiler radiometric kinase assay (Millipore); type: biochemical; details: TK
Protocol: as §1, §2

Syk(h) = Syk(h) (Homo sapiens (Human), UniProt P43405); assay: IC50 profiler radiometric kinase assay (Millipore); type: biochemical; details: TK
Protocol: as §1, §2

Lyn(h) = Lyn(h) (Homo sapiens (Human), UniProt P07948); assay: IC50 profiler radiometric kinase assay (Millipore); type: biochemical; details: TK
Protocol: as §1, §2

Aurora-A(h) = Aurora-A(h) (Homo sapiens (Human), UniProt O14965); assay: IC50 profiler radiometric kinase assay (Millipore); type: biochemical; details: MISC
Protocol: as §1, §2

Pim-1(h) = Pim-1(h) (Homo sapiens (Human), UniProt P11309); assay: IC50 profiler radiometric kinase assay (Millipore); type: biochemical; details: CAMK
Protocol: as §1, §2

JNK1α1(h) = JNK1α1(h) (Homo sapiens (Human), UniProt P45983); assay: IC50 profiler radiometric kinase assay (Millipore); type: biochemical; details: CMGC
Protocol: as §1, §2

BTK(R28H)(h) = BTK(R28H)(h) (Homo sapiens (Human), UniProt Q06187, R28H); assay: IC50 profiler radiometric kinase assay (Millipore); type: biochemical; details: TK
Protocol: as §1, §2

DoHH2 = assay: CellTiter-Glo proliferation/viability assay; type: cell-based, human; details: Homo sapiens
[2] = molecular target: PI3 Kinase (p110β/p85α)(h) (Homo sapiens (Human), UniProt P42338); assay: IC50 profiler radiometric kinase assay (Millipore); type: biochemical; details: Lipid/Atypical
Ramos [3] = assay: Apoptosis by flow cytometry (Annexin V / 7AAD); type: cell-based, human; details: Table 5, 6 hours
p70S6K(h) = p70S6K(h) (Homo sapiens, UniProt P23443); assay: IC50 profiler radiometric kinase assay (Millipore); type: biochemical; details: AGC
Ramos [4] = assay: CellTiter-Glo proliferation/viability assay; type: cell-based, human; details: Homo sapiens, Ramos, read-out: Ramos EC50
CaMKI(h) = CaMKI(h) (Homo sapiens (Human), UniProt Q14012); assay: IC50 profiler radiometric kinase assay (Millipore); type: biochemical; details: CAMK
CDK9/cyclinT1(h) = CDK9/cyclinT1(h) (Homo sapiens (Human), UniProt P50750); assay: IC50 profiler radiometric kinase assay (Millipore); type: biochemical; details: CMGC
Src [5] = molecular target: T1, Src; details: read-out: Src IC50
[6] = DOHH-2, 48 hrs, read-out: DoHH2 EC50

Chain of Bmx(h) (P51813 whole entry): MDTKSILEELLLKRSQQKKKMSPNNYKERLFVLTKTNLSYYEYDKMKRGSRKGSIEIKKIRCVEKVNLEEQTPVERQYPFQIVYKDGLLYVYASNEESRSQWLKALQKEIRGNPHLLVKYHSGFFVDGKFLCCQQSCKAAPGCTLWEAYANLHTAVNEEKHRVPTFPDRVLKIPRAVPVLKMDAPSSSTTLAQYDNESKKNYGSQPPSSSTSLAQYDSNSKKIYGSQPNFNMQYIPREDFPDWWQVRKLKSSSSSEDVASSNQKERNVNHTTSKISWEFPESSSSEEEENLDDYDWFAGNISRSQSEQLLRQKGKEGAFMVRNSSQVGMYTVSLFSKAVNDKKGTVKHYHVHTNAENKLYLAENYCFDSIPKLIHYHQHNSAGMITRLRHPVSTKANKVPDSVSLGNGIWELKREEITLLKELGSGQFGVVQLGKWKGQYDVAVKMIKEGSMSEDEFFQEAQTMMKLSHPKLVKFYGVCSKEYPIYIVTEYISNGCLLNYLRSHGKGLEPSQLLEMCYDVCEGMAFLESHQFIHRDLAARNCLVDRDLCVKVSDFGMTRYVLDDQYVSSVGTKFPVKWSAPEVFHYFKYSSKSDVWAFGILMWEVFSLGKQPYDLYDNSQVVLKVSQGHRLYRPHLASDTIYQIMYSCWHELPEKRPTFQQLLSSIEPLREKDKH
Chain of TGFBR1(h) (P36897 34-503): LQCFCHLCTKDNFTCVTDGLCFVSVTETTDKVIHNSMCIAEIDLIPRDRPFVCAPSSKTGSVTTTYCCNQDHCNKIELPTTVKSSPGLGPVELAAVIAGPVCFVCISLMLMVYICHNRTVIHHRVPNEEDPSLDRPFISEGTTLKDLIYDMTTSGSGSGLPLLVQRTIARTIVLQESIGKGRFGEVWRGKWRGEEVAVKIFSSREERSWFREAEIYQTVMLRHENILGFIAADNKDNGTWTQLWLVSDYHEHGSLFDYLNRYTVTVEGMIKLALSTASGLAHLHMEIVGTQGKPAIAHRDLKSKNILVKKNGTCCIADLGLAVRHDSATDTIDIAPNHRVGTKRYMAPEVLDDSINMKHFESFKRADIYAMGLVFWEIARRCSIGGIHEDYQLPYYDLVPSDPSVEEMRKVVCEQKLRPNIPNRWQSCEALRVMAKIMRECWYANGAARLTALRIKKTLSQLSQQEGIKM
Chain of Abl(h) (P00519 whole entry): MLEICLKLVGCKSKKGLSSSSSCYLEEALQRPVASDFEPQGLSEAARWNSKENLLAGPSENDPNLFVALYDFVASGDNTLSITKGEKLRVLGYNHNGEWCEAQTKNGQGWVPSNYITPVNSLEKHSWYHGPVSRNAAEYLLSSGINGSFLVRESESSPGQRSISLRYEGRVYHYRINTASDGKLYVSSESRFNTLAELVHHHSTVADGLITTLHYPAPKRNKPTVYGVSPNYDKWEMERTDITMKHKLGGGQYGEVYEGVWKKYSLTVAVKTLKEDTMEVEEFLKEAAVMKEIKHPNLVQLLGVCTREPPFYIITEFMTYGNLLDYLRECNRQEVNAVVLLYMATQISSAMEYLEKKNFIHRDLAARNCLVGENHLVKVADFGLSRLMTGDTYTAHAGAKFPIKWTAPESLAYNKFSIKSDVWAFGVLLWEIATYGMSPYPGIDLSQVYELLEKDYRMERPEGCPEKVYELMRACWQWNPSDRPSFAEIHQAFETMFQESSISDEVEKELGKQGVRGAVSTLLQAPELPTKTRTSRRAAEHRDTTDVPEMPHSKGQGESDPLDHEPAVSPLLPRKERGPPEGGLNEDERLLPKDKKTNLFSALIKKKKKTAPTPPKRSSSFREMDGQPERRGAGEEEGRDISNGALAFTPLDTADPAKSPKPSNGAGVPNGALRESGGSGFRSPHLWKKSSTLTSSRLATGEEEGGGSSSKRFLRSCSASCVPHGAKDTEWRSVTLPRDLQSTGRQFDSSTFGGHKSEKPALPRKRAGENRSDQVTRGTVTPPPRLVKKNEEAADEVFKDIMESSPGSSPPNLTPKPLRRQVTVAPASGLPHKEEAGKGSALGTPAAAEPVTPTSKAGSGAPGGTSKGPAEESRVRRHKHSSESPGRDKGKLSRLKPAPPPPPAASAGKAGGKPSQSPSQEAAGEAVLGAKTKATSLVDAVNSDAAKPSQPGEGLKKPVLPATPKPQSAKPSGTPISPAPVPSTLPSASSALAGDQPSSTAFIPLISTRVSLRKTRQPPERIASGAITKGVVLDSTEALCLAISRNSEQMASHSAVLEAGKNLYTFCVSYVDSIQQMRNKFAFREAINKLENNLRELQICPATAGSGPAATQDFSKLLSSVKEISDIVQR
Chain of CDK9/cyclinT1(h) (P50750 whole entry): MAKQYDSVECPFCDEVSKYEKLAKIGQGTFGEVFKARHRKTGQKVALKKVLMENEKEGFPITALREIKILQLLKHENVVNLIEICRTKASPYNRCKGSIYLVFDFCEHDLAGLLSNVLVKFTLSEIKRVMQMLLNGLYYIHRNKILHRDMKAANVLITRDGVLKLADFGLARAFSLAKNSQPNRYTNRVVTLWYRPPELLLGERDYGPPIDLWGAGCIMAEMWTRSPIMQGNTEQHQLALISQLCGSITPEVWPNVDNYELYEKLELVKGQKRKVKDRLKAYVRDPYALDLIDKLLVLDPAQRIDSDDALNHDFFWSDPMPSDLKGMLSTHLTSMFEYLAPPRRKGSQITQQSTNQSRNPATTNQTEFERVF
Chain of CDK9/cyclinT1(h) (O60563 whole entry partner): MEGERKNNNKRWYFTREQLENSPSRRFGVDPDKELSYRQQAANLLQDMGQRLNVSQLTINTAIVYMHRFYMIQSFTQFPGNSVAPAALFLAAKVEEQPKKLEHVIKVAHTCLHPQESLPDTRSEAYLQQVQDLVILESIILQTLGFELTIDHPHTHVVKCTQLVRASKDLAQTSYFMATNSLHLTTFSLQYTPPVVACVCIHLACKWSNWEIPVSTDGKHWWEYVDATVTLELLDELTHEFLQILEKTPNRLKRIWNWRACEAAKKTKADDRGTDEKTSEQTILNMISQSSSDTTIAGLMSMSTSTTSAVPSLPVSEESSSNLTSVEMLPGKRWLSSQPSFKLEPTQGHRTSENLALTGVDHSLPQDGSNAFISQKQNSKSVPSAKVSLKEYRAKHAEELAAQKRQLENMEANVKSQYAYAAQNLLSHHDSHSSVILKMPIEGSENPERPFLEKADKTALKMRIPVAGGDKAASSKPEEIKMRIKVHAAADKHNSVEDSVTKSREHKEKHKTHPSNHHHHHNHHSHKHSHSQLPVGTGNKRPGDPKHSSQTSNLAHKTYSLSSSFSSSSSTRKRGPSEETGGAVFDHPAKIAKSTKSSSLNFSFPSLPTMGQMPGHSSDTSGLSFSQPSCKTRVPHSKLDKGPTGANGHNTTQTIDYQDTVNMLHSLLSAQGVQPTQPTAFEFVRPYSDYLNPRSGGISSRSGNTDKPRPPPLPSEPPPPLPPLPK
Chain of Pim-1(h) (P11309 whole entry): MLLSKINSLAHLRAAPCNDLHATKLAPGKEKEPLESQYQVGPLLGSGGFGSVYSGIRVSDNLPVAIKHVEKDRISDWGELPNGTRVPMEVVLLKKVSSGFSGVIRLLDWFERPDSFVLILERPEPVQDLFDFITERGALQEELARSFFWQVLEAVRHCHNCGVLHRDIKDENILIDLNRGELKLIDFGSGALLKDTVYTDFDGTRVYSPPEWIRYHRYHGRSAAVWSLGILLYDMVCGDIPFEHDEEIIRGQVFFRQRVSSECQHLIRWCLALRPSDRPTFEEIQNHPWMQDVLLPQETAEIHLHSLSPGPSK
Chain of Lyn(h) (P07948 whole entry): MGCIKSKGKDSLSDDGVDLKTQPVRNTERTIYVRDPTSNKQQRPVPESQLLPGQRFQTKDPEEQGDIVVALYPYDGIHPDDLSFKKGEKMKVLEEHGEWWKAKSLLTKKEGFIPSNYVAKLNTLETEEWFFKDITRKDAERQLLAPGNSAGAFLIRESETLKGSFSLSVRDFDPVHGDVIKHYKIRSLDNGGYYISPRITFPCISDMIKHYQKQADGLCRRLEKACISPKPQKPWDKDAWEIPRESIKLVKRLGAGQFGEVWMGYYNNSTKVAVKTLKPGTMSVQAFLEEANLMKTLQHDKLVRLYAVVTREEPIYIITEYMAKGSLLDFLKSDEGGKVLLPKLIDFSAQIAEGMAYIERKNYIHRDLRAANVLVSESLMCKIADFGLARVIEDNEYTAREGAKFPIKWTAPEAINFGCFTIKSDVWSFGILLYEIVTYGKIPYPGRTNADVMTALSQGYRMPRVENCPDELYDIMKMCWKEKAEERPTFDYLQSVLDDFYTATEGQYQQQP
Chain of Hck(h) activated (P08631 whole entry): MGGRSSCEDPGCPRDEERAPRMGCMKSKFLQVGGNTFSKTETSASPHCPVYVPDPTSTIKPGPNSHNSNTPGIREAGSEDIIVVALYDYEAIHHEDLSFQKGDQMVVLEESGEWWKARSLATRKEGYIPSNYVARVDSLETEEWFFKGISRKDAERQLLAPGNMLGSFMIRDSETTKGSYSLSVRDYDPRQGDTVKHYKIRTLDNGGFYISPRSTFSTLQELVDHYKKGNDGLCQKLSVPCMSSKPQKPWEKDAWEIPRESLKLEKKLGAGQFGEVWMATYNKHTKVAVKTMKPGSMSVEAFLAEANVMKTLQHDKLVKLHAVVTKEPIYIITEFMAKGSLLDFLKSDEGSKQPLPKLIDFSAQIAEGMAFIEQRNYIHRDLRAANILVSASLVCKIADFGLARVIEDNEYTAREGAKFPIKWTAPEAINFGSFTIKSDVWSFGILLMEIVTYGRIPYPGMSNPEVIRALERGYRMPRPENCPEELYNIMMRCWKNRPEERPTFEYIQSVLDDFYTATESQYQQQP

Structure (SMILES) | IC50 (PDGFRβ(h)) [µM] | IC50 (FGFR1(h)) [µM] | IC50 (c-RAF(h)) [µM] | IC50 (Hck(h) activated) [µM] | IC50 (Bmx(h)) [µM] | IC50 (Abl(h)) [µM] | IC50 (JAK3(h)) [µM] | IC50 (PAK2(h)) [µM] | IC50 (CSK(h)) [µM] | IC50 (GSK3β(h)) [µM] | IC50 (MKK6(h)) [µM] | IC50 (PDK1(h)) [µM] | IC50 (TGFBR1(h)) [µM] | IC50 (Met(h)) [µM] | IC50 (c-Kit(D816V)(h)) [µM] | IC50 (JAK2(h)) [µM] | IC50 (Syk(h)) [µM] | IC50 (Lyn(h)) [µM] | IC50 (Aurora-A(h)) [µM] | IC50 (Pim-1(h)) [µM] | also measured
CCN(CC)CCOc1ccc(Nc2cc3c(cn2)cc(-c2ccccc2)c(=O)n3CC)nc1 [Compound 1, 7-[5-(2-Diethylamino-ethoxy)-pyridin-2-ylamino]-1-ethyl-3-phenyl-1H-[1, 6]naphthyridin-2-one] | 0.1 to 0.5 | < 0.01 | 0.1 to 0.5 | < 0.01 | < 0.01 | < 0.01 | > 1 | > 1 | 0.5 to 1 | > 1 | > 1 | > 1 | 0.1 to 0.5 | > 1 | 0.1 to 0.5 | > 1 | > 1 | < 0.01 | > 1 | > 1 | IC50 (Src [1]): 0.1 to 1 µM; IC50 (JNK1α1(h)): > 1 µM; IC50 (BTK(R28H)(h)): 0.5 to 1 µM; EC50 (DoHH2; DOHH-2, read-out: EC50 (Proliferation)): < 1 µM; EC50 (DoHH2; [6]): < 1 µM; IC50 [2]: > 1 µM; Percent Apoptosis Ramos (Ramos [3]; 1 uM): 35.71%; Percent Apoptosis Ramos (Ramos [3]; 2 uM): 38.94%; Percent Apoptosis Ramos (Ramos [3]; 5 uM): 39.09%; Percent Apoptosis Ramos (Ramos [3]; 10 uM): 51.63%; IC50 (p70S6K(h)): > 1 µM; EC50 (Ramos [4]; 48 hrs): 1 to 10 µM; IC50 (CaMKI(h)): > 1 µM; IC50 (CDK9/cyclinT1(h)): > 1 µM
CCn1c(=O)c(-c2ccccc2)cc2cnc(Nc3ncc(CCN(C)C)s3)cc21 [Compound 2, 7-[5-(2-Dimethylamino-ethyl)-thiazol-2-ylamino]-1-ethyl-3-phenyl-1H-[1,6]naphthyridin-2-one] | 0.5 to 1 | 0.01 to 0.1 | 0.1 to 0.5 | 0.1 to 0.5 | 0.01 to 0.1 | 0.01 to 0.1 | > 1 | > 1 | > 1 | > 1 | > 1 | > 1 | 0.5 to 1 | > 1 | > 1 | > 1 | > 1 | < 0.01 | > 1 | > 1 | IC50 (Src [5]): > 5 µM; IC50 (JNK1α1(h)): > 1 µM; IC50 (BTK(R28H)(h)): > 1 µM; EC50 (DoHH2; [6]): 1 to 10 µM; IC50 [2]: > 1 µM; IC50 (p70S6K(h)): > 1 µM; EC50 (Ramos [4]; 48 h): 1 to 10 µM; IC50 (CaMKI(h)): > 1 µM; IC50 (CDK9/cyclinT1(h)): > 1 µM
